# Test results from article PMC7822874, “Chemoprotective antimalarials identified through quantitative high-throughput screening of Plasmodium blood and liver stage parasites” (Scientific Reports, 2021).
# “And” between values parts separate entries of the source, which are not always exact repeats. Equal values may be shown once. Read-outs that look alike come from different tables or passages of the source.
# Assays:
# [1] = tested on: T1, Plasmodium falciparum Dd2-attB (parental line), asexual blood stages; assay: microbe, parasite or virus in culture; set-up: replicate k of 3 (each line is one of three independent assays; the three lines of one compound and parasite line follow each other); settings: n = 1; for Individual replicates / Log AC50 (M): 72 h; for AC50: Plasmodium falciparum, DD2, 72 h, read-out: Individual replicates / Log AC50 (converted)
# T1 construct: Dd2-attB, the isogenic parental line
# Procedure: The overexpression of the fumarate-dependent yeast DHODH confers resistance to compounds that inhibit the parasite mETC, or the parasite DHODH enzyme that depends on ubiquinone provided by the parasite mETC. Assays were performed in three independent assays on a subset of compounds, and differences between the Dd2-attB parental line and the ScDHODH transgenic line were analyzed using two-sided Student’s t-tests.
# in vitro = settings: human
# [2] = tested on: P. berghei-ANKA-GFP-LucCON liver stage parasites in HepG2-A16-CD81EGFP cells; assay: P. berghei liver stage Pb-Luc assay, Method 1 (UCSD, 1536-well); format: cell-based, Plasmodium berghei; settings: Plasmodium berghei, 48 h, average of 2 wells, 1536-well plate; for activity at 1 µM: nominal 1 uM (10 mM stock), […] for 15 mM, 1.2 uM for 12 mM, 2 uM for 20 mM stock; for activity at 3 µM: nominal 3 uM (10 mM stock), 4.5 uM for 15 mM, 3.6 uM for 12 mM, 6 uM for 20 mM stock; for all read-outs here: reference of the scale not given here
# [3] = tested on: Plasmodium falciparum Dd2 asexual blood stage parasites; assay: microbe, parasite or virus in culture; set-up: species or system Plasmodium falciparum Dd2 in human erythrocytes; single determination (one 11-point concentration-response curve); settings: Plasmodium falciparum, DD2, Erythrocyte, 72 h; read-out: AC50
# [4] = HepG2-A16-CD81EGFP cells, uninfected
# [5] = repeat 1, read-out: Pb-Luc signal, 1 uM, repeat 1
# [6] = repeat 2, read-out: Pb-Luc signal, 1 uM, repeat 2
# [7] = repeat 3, read-out: Pb-Luc signal, 1 uM, repeat 3
# [8] = repeat 1, read-out: Pb-Luc signal, 3 uM, repeat 1
# [9] = repeat 2, read-out: Pb-Luc signal, 3 uM, repeat 2
# [10] = repeat 3, read-out: Pb-Luc signal, 3 uM, repeat 3
# [11] = nominal 1 uM (10 mM stock), […] for 15 mM, 1.2 uM for 12 mM, 2 uM for 20 mM stock, average of 2 wells, repeat 2
# [12] = nominal 3 uM (10 mM stock), 4.5 uM for 15 mM, 3.6 uM for 12 mM, 6 uM for 20 mM stock, average of 2 wells, repeat 2
Compound,Individual replicates / Log AC50 (M) [1],AC50 [1] [µM],"viability at 48 h, 1 µM (in vitro; [4]) [%]","viability at 48 h, 3 µM (in vitro; [4]) [%]","activity at 1 µM [2, 5] [%]","activity at 1 µM [2, 6] [%]","activity at 1 µM [2, 7] [%]","activity at 3 µM [2, 8] [%]","activity at 3 µM [2, 9] [%]","activity at 3 µM [2, 10] [%]",AC50 [3] [µM],"HepG2 viability signal, 1 uM, repeat 2 (HepG2-A16-CD81EGFP cells; [11]) [%]","HepG2 viability signal, 3 uM, repeat 2 (HepG2-A16-CD81EGFP cells; [12]) [%]",also measured
O=C(c1ccccc1F)N1c2nc(-c3ccco3)nn2C2(CCCCC2)[C@@H]2CCCC[C@@H]21 [NCGC00118206-02],-4.7986 Log AC50 (M),15.9,,,,,,,,,,,,
Cc1nnc2c3ccccc3nc(N3CCN(c4ccccc4)CC3)n12 [NCGC00107295-02],-4.8986 Log AC50 (M) and -4.9986 Log AC50 (M),,,,,,,,,,,,,
Cc1cccc(N2CCN(C(=O)Cn3ncc4c3-c3ccccc3OC4)CC2)c1C [NCGC00112661-02],,14.2,,,,,,,,,,,,
c1ccc(CCn2nc(-c3cnccn3)nc2CCCN2CCCCC2)cc1 [NCGC00390063-01],,7.97,,,,,,,,,,,,
O=C(NCCCN1CCNCC1)c1cccc(-c2cc(O)c3ncccc3c2)c1 [NCGC00244531-01],,15.9,,,,,,,,,,,,
CN1CCC(CNCc2nccc3c(=O)[nH]c(COc4ccc(Cc5ccccc5)cc4)nc23)C1 (stereo not shown) [NCGC00489856-02],-4.7486 Log AC50 (M),,,,,,,,,,,,,
O=C(O)c1ccc(O)c2ncc(N3CCN(Cc4ccccc4)CC3)cc12 [NCGC00241045-03],,17.8,,,,,,,,,,,,
COc1ccc(NC(=O)CN2C(=O)CCn3nc(-c4cccn4C)cc32)cc1Cl [NCGC00132050-02],-4.9986 Log AC50 (M),8.94,,,,,,,,,,,,
c1ccc(CN2CCCn3ncc(-c4ccccc4-c4ccccc4)c32)cc1 [NCGC00499205-01],-4.8486 Log AC50 (M),15.9,,,,,,,,,,,,
Cc1nn2c(c1-c1ccccc1-c1ccccc1)N(Cc1ccccc1)CCC2 [NCGC00420451-02],,15.9,,,,,,,,,,,,
CN1CCN(c2cnc3c(O)ccc(C(=O)O)c3c2)CC1 [NCGC00241033-01],-4.8986 Log AC50 (M) and -4.9486 Log AC50 (M),17.8,,,,,,,,,,,,
O=C(O)c1ccc(O)c2ncc(N3CCN(Cc4ccccc4)CC3)cc12 [NCGC00241045-04],-4.6986 Log AC50 (M) and -4.7986 Log AC50 (M) (2×),,,,,,,,,,,,,
NC(=O)c1csc(-n2cc(Cc3ccc([S+](N)(=O)[O-])cc3)c(-c3cccc(-c4ccccc4)c3)n2)n1 [NCGC00390757-01],-4.9986 Log AC50 (M) and -4.8486 Log AC50 (M),20,,,,,,,,,,,,
O=C(O)c1ccc(O)c2ncc(N3CCCCC3CCc3ccccn3)cc12 (stereo not shown) [NCGC00241756-01],,20,,,,,,,,,,,,
O=C(Nc1ccc2c(N3CCCC3)ncnc2c1)c1cccc(F)c1 [NCGC00425501-01],,,98.5,94.4,97.2,101,106,56.8,72.2,29.3,4.73,97.92,95.12,
CCOC(=O)c1c(S(=O)(=O)N2CCCC(C(=O)N3CCN(c4cccc(C)c4C)CC3)C2)c(C)n(C)c1C (stereo not shown) [NCGC00138143-01],,,96.4,99.6,90.2,90.3,120,83.2,98.3,108,1.06,101.67,102.57,
CCC(CC)c1cc([C@H]2CN3CC[C@H]2C[C@@H]3CN[S+](=O)([O-])c2ccccc2C#N)nc(-c2ccncc2)n1 [NCGC00421343-01],,,,,72,78.5,103,49,52,66.9,1.5,,,"viability at 48 h, 1 µM (in vitro): 110%; viability at 48 h, 3 µM (in vitro): 110%; HepG2 viability signal, 1 uM, repeat 2 (HepG2-A16-CD81EGFP cells; human, 48 h, 1 µM): 105.19%; HepG2 viability signal, 3 uM, repeat 2 (HepG2-A16-CD81EGFP cells; human, 48 h, 3 µM): 104.55%"
CC(C)c1ccccc1Oc1c(C(F)(F)F)oc2c(CN3CCN(C)CC3)c(O)ccc2c1=O [NCGC00100597-01],,,101,102,104,108,80.4,67.9,95.1,69.5,0.668,96.39,99.40,
CCOC(=O)C1(Cc2ccccc2Cl)CCNCC1 [NCGC00430911-01],,,94.6,94.7,78.1,97.3,89.2,74.5,106,93.5,2.66,100.98,101.65,
Cc1ccc(CN2COc3cc(C)c4c(oc(=O)c5ccccc54)c3C2)cc1 [NCGC00116336-01],,,101,105,94.2,106,96.8,71.6,78.2,92.4,1.33,104.57,104.67,
CCc1ccc(Oc2c(C(F)(F)F)oc3c(CN4CCN(CC)CC4)c(O)ccc3c2=O)cc1 [NCGC00101506-01],,,92.4,95.7,82.1,87.1,67,64.2,90,40.1,0.376,92.46,94.20,
COc1cc(C(=O)NC2CCCc3c2[nH]c2c(Cl)cccc32)cc(OC)c1OC (stereo not shown) [NCGC00424034-01],,,101,98.2,122,161,165,157,165,156,2.11,98.86,98.35,
CCOc1ccccc1CN1CCCN(Cc2ccncc2)C(c2ccccc2)CC(=O)NCC1 (stereo not shown) [NCGC00467181-01],,,101,96.8,105,89.1,111,102,80.2,86.4,6.68,96.74,96.24,
